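Values below derive from 48-hour exposures of cells grown in 96-well plates, with endpoints linearly interpolated between the two concentrations bracketing the appropriate inhibition level. TGI is the concentration that stops growth completely.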
Assays:
Assay in all cases: NCI anticancer screen, dose series, 48 h
[1] = system: OVCAR-5 ovarian
[2] = system: SF-539 CNS
[3] = system: TK-10 renal
[4] = system: CCRF-CEM leukemia
[5] = system: MDA-N
[6] = system: U251 CNS
[7] = system: SNB-19 CNS
[8] = system: HCT-15 colon
[9] = system: MDA-MB-435
[10] = system: RXF 393 renal
[11] = system: OVCAR-3 ovarian
[12] = system: SF-268 CNS
[13] = system: SNB-75 CNS
[14] = system: NCI-H522 lung
[15] = system: PC-3 prostate
[16] = system: SK-MEL-5 melanoma
[17] = system: MOLT-4 leukemia
[18] = system: KM12 colon
[19] = system: A549 NSCLC
[20] = system: MALME-3M melanoma
[21] = system: K-562 leukemia
[22] = system: RPMI-8226 leukemia
[23] = system: A498 renal
[24] = system: NCI-H23 lung
[25] = system: HS 578T breast
[26] = system: ACHN renal
[27] = system: OVCAR-4 ovarian
[28] = system: UACC-257 melanoma
[29] = system: SF-295 CNS
[30] = system: NCI-H226 lung
[31] = system: SW-620 colon
[32] = system: NCI-H460 lung
[33] = system: 786-0 renal
[34] = system: HCT-116 colon
[35] = system: DU-145 prostate
[36] = system: UO-31 renal
[37] = system: MDA-MB-231 breast
[38] = system: MCF7 breast
[39] = system: OVCAR-8 ovarian
[40] = system: HT29 colon
[41] = system: SK-OV-3 ovarian
[42] = system: LOX IMVI melanoma
[43] = system: BT-549 breast
[44] = system: M14 melanoma
[45] = system: NCI/ADR-RES ovarian
[46] = system: SN12C renal
[47] = system: UACC-62 melanoma
[48] = system: EKVX NSCLC
[49] = system: CAKI-1 renal
[50] = system: HOP-62 NSCLC
[51] = system: SK-MEL-2 melanoma
[52] = system: T-47D breast
[53] = system: SR leukemia
[54] = system: HCC-2998 colon
[55] = system: COLO 205 colon
[56] = system: HOP-92 NSCLC
[57] = system: SK-MEL-28 melanoma
[58] = system: IGROV1 ovarian
[59] = system: HL-60(TB) leukemia

CN(C)/C=N/S(=O)(=O)c1nn2c(C=O)c(-c3ccccc3)nc2s1
TGI [1]: > 100 µM
TGI [2]: > 100 µM
TGI [3]: > 77.1 µM
TGI [4]: 9.8 µM
TGI [5]: 52.5 µM
TGI [6]: > 31.6 µM
TGI [7]: > 100 µM
TGI [8]: 45.6 µM
TGI [9]: > 100 µM
TGI [10]: 49 µM
TGI [11]: 24.1 µM
TGI [12]: > 100 µM
TGI [13]: > 100 µM
TGI [14]: 15.8 µM
TGI [15]: > 89 µM
TGI [16]: 27.9 µM
TGI [17]: 32.1 µM
TGI [18]: > 79.7 µM
TGI [19]: > 82.4 µM
TGI [20]: 35.6 µM
TGI [21]: > 61.7 µM
TGI [22]: 42.9 µM
TGI [23]: > 100 µM
TGI [24]: > 83 µM
TGI [25]: > 100 µM
TGI [26]: 21.1 µM
TGI [27]: > 89.9 µM
TGI [28]: > 63.3 µM
TGI [29]: > 100 µM
TGI [30]: > 57.4 µM
TGI [31]: 20.2 µM
TGI [32]: > 51.4 µM
TGI [33]: 21.3 µM
TGI [34]: 13.1 µM
TGI [35]: > 100 µM
TGI [36]: 19.5 µM
TGI [37]: > 74.9 µM
TGI [38]: > 100 µM
TGI [39]: > 53.4 µM
TGI [40]: 4.58 µM
TGI [41]: > 100 µM
TGI [42]: > 89 µM
TGI [43]: > 26.4 µM
TGI [44]: 14.8 µM
TGI [45]: > 76.6 µM
TGI [46]: 49.7 µM
TGI [47]: 54.4 µM
TGI [48]: > 100 µM
TGI [49]: 8.68 µM
TGI [50]: > 100 µM
TGI [51]: > 100 µM
TGI [52]: 61.4 µM
TGI [53]: 21.3 µM
TGI [54]: > 56.5 µM
TGI [55]: > 38.6 µM
TGI [56]: > 100 µM
TGI [57]: 29.8 µM

CCCCCCCCCCCCCCCCOCC(Cl)CP(=O)(O)OP(=O)(O)OCC1OC(n2cnc3c(N)ncnc32)C(O)C1O (stereo unspecified)
TGI [1]: > 100 µM
TGI [2]: > 100 µM
TGI [3]: > 100 µM
TGI [4]: > 100 µM
TGI [5]: > 100 µM
TGI [6]: > 100 µM
TGI [7]: > 100 µM
TGI [8]: > 100 µM
TGI [9]: > 100 µM
TGI [10]: > 100 µM
TGI [11]: > 100 µM
TGI [12]: > 100 µM
TGI [13]: > 100 µM
TGI [14]: > 100 µM
TGI [15]: > 100 µM
TGI [16]: > 100 µM
TGI [17]: > 100 µM
TGI [18]: > 100 µM
TGI [58]: > 100 µM
TGI [19]: > 100 µM
TGI [20]: > 100 µM
TGI [21]: > 100 µM
TGI [23]: > 100 µM
TGI [24]: > 100 µM
TGI [25]: > 100 µM
TGI [26]: > 100 µM
TGI [27]: > 100 µM
TGI [28]: > 100 µM
TGI [30]: > 100 µM
TGI [31]: > 100 µM
TGI [32]: > 100 µM
TGI [59]: > 100 µM
TGI [33]: > 100 µM
TGI [34]: > 100 µM
TGI [35]: > 100 µM
TGI [36]: > 100 µM
TGI [37]: > 100 µM
TGI [38]: > 100 µM
TGI [39]: > 100 µM
TGI [40]: > 100 µM
TGI [41]: > 100 µM
TGI [42]: > 100 µM
TGI [43]: > 100 µM
TGI [44]: > 100 µM
TGI [45]: > 100 µM
TGI [46]: > 100 µM
TGI [47]: > 100 µM
TGI [48]: > 100 µM
TGI [49]: > 100 µM
TGI [50]: > 100 µM
TGI [51]: > 100 µM
TGI [52]: > 100 µM
TGI [53]: > 100 µM
TGI [54]: > 100 µM
TGI [55]: > 100 µM
TGI [56]: > 100 µM
TGI [57]: > 100 µM

CC(C)(C)OC(=O)NCC(=O)NC1CC=CCC1NC(=O)CNC(=O)OC(C)(C)C (stereo unspecified)
TGI [1]: > 100 µM
TGI [2]: > 100 µM
TGI [3]: > 100 µM
TGI [4]: > 100 µM
TGI [5]: > 100 µM
TGI [6]: > 100 µM
TGI [7]: > 100 µM
TGI [8]: > 100 µM
TGI [9]: > 100 µM
TGI [10]: > 100 µM
TGI [11]: > 100 µM
TGI [12]: > 100 µM
TGI [13]: > 100 µM
TGI [14]: > 100 µM
TGI [15]: > 100 µM
TGI [16]: > 100 µM
TGI [17]: > 100 µM
TGI [18]: > 100 µM
TGI [58]: > 100 µM
TGI [19]: > 100 µM
TGI [20]: > 100 µM
TGI [21]: > 100 µM
TGI [22]: > 100 µM
TGI [23]: > 100 µM
TGI [24]: > 100 µM
TGI [25]: > 100 µM
TGI [26]: > 100 µM
TGI [27]: > 100 µM
TGI [28]: > 100 µM
TGI [29]: > 100 µM
TGI [30]: > 100 µM
TGI [31]: > 100 µM
TGI [32]: > 100 µM
TGI [59]: > 100 µM
TGI [33]: > 100 µM
TGI [34]: > 100 µM
TGI [35]: > 100 µM
TGI [36]: > 100 µM
TGI [37]: > 100 µM
TGI [38]: > 100 µM
TGI [39]: > 100 µM
TGI [40]: > 100 µM
TGI [41]: > 100 µM
TGI [42]: > 100 µM
TGI [43]: > 100 µM
TGI [45]: > 100 µM
TGI [46]: > 100 µM
TGI [47]: > 100 µM
TGI [49]: > 100 µM
TGI [50]: > 100 µM
TGI [52]: > 100 µM
TGI [53]: > 100 µM
TGI [54]: > 100 µM
TGI [55]: > 100 µM
TGI [56]: > 100 µM
TGI [57]: > 100 µM

CC[C@@]1(O)C(=O)OCc2c1cc1n(c2=O)Cc2c-1nc1ccccc1c2/C=N/NC(=O)C[N+](C)(C)C
TGI [1]: > 100 µM
TGI [2]: 2.61 µM
TGI [3]: > 100 µM
TGI [5]: > 100 µM
TGI [6]: > 35.8 µM
TGI [7]: > 94.2 µM
TGI [8]: > 100 µM
TGI [9]: > 100 µM
TGI [10]: 11.7 µM
TGI [11]: > 100 µM
TGI [12]: > 63 µM
TGI [13]: 9.74 µM
TGI [14]: > 100 µM
TGI [15]: > 100 µM
TGI [16]: 7.98 µM
TGI [17]: 16.3 µM
TGI [18]: > 100 µM
TGI [58]: > 100 µM
TGI [19]: > 100 µM
TGI [20]: > 100 µM
TGI [21]: > 100 µM
TGI [22]: > 100 µM
TGI [23]: > 65.1 µM
TGI [24]: 6.27 µM
TGI [25]: > 100 µM
TGI [27]: > 100 µM
TGI [28]: > 100 µM
TGI [29]: > 33.3 µM
TGI [30]: 31.8 µM
TGI [31]: > 100 µM
TGI [32]: 21.5 µM
TGI [33]: > 55.7 µM
TGI [34]: > 100 µM
TGI [35]: 22 µM
TGI [36]: 9.72 µM
TGI [37]: > 100 µM
TGI [38]: > 100 µM
TGI [39]: > 100 µM
TGI [40]: > 100 µM
TGI [41]: > 100 µM
TGI [42]: > 37.6 µM
TGI [43]: > 100 µM
TGI [44]: 20.5 µM
TGI [45]: > 62.3 µM
TGI [46]: > 100 µM
TGI [47]: 3.66 µM
TGI [48]: > 100 µM
TGI [49]: > 100 µM
TGI [51]: > 100 µM
TGI [52]: 30.4 µM
TGI [53]: 0.922 µM
TGI [54]: > 100 µM
TGI [55]: > 100 µM
TGI [56]: > 49.3 µM
TGI [57]: > 100 µM

FC(F)(F)c1ccc2c(c1)nc(-c1ccccc1)n2CC1CCCN2CCCCC12 (stereo unspecified)
TGI [2]: 31 µM
TGI [3]: 41.8 µM
TGI [5]: 36.2 µM
TGI [6]: 56.2 µM
TGI [7]: > 100 µM
TGI [8]: 64 µM
TGI [9]: 42.3 µM
TGI [10]: 75.5 µM
TGI [11]: 40.1 µM
TGI [12]: 33.5 µM
TGI [13]: 50.8 µM
TGI [14]: 28.7 µM
TGI [15]: 34.1 µM
TGI [16]: 28.1 µM
TGI [17]: > 100 µM
TGI [18]: 66.5 µM
TGI [58]: 50.4 µM
TGI [19]: > 100 µM
TGI [20]: 27.2 µM
TGI [21]: 58.3 µM
TGI [22]: > 100 µM
TGI [23]: 69.1 µM
TGI [25]: 33.9 µM
TGI [26]: 56.5 µM
TGI [27]: > 100 µM
TGI [28]: 31.8 µM
TGI [29]: 31.7 µM
TGI [30]: 65.9 µM
TGI [31]: 69.9 µM
TGI [32]: 39.3 µM
TGI [59]: 33.8 µM
TGI [33]: 30.7 µM
TGI [34]: 30.6 µM
TGI [35]: > 100 µM
TGI [36]: 1.16 µM
TGI [37]: 29.4 µM
TGI [38]: 38.8 µM
TGI [39]: 37.9 µM
TGI [40]: 38.5 µM
TGI [41]: 37.3 µM
TGI [42]: 29.1 µM
TGI [43]: 34.9 µM
TGI [44]: 31.9 µM
TGI [45]: 34.3 µM
TGI [46]: 45.5 µM
TGI [47]: 31.2 µM
TGI [48]: > 100 µM
TGI [49]: > 100 µM
TGI [50]: > 100 µM
TGI [51]: 29.3 µM
TGI [52]: 71.7 µM
TGI [53]: 49.2 µM
TGI [54]: 32.3 µM
TGI [55]: 26.3 µM
TGI [56]: 65.8 µM
TGI [57]: 35.3 µM
